Patent publication US20140057880A1, “ANTCIN DERIVATIVES IN COMBINATION WITH ANTI-CANCER DRUGS IN THE TREATMENT AND/OR PREVENTION OF TUMORS” (Taiwan Antitumor Biotech Co., Ltd., priority 2012, published 2014)
Converted amounts (≈) assume the structure as drawn. Where two headings read alike, the source gives them in different places.

Key:
HepG2 cells [1] = tested on: HepG2 cells
HepG2 cells [2] = assay: cells; settings: Homo sapiens, HepG2, 24 h, read-out: IC50 of HepG2 cells
human cancer cells = human cancer cells rather than normal cells; cited from earlier work
CCD-966SK cells = assay: Cell viability assay (MTT assay), normal cell line CCD-966SK; assay type: cell-based

SMILES	IC50 (HepG2 cells [2])	selective inhibition of proliferation (human cancer cells)	other results
O=c1[nH]cc(F)c(=O)[nH]1 [5FU, 5-fluorouracil]	200 mg/L (≈ 1540 µM)	–	killing of HepG2 cells (HepG2 cells [1]; 5FU alone, high concentration): cannot be completely killed
C=C(CC[C@@H](C)[C@H]1CC[C@H]2C3=C(C(=O)C[C@]12C)[C@@]1(C)CCC(=O)[C@@H](C)[C@@H]1CC3)[C@@H](C)C(=O)O [Antcin A, 4α-methylergosta-8,24(28)-diene-3,11-dione-26-oic acid]	–	selectively inhibit proliferation of human cancer cells rather than normal cells	–
C=C(CC[C@@H](C)[C@H]1CC[C@H]2C3=C(C(=O)C[C@]12C)[C@@]1(C)CCC(=O)[C@@H](C)C1C[C@@H]3O)C(C)C(=O)O (stereo partly shown) [Antcin C, 4amethylergosta-8,24(28)-dien-3,11-trion-7P-26-oic acid]	–	selectively inhibit proliferation of human cancer cells rather than normal cells	–
C=C(CC[C@@H](C)[C@H]1CC[C@H]2C3=C(C(=O)C[C@]12C)[C@@]1(C)CCC(=O)[C@@H](C)[C@@H]1CC3)C(C)C(=O)OC (stereo partly shown) [Methyl antcinate A]	–	selectively inhibit proliferation of human cancer cells rather than normal cells	–
O=C1c2c(O)ccc(O)c2C(=O)c2c(NCCNCCO)ccc(NCCNCCO)c21 [mitoxantrone]	~2.5 mg/L (≈ 5.62 µM)	–	viability of normal cells (CCD-966SK cells) (CCD-966SK cells; mitoxantrone alone at about 2.5 μg/ml (FIG. 12)): reduced
CCN(CC)CCNC(=O)c1c(C)[nH]c(/C=C2\C(=O)Nc3ccc(F)cc32)c1C [sunitinib]	~25 mg/L (≈ 62.7 µM)	–	killing of normal cells (CCD-966SK cells) (CCD-966SK cells; sunitinib alone at about 25 μg/ml (FIG. 10)): also killed
CC/C(=C(\c1ccccc1)c1ccc(OCCN(C)C)cc1)c1ccccc1 [tamoxifen]	–	–	killing of HepG2 cells (HepG2 cells [1]; 12.5 μg/ml tamoxifen alone): cannot be completely killed
